Results on ten molecules are retold here after US20170321283A1, “METHODS OF DIAGNOSING CANCER AND OF PREDICTING RESPONSE OF CANCER TO DENDROGENIN A TREATMENT” (INSERM (INSTITUT NATIONAL DE LA SANTÉ ET DE LA RECHERCHE …, priority 2014, published 2017).

Entries after “also recorded” stand apart in the source; their conditions may differ.

The target in series [1] is T1, hGSTA1 (Homo sapiens, UniProt P08263).
T1 construct: purchased Novus NBP1-30307
T1 sequence (P08263 1-222): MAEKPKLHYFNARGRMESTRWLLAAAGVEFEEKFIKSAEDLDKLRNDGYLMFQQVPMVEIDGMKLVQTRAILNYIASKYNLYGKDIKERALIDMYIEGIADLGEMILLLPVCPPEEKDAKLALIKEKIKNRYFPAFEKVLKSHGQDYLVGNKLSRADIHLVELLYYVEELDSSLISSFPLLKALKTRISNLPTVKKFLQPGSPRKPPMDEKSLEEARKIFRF
The series is described as follows: Glutathionylation of CDNB by recombinant hGSTA1 (CDNB-SG biosynthesis). It counts as biochemical. The settings on record: for Inhibition of CDNB-SG biosynthesis: 1 and 10 μM 5,6α-EC or HA (FIG. 2c). As to the method:
The mixture was incubated for 30 min at 30° C. and the reaction was stopped with 200 μl MeOH. Measurements were carried out spectrophotometrically at 345 nm (Am=8.5 mM^−1·cm^−1). The negative control corresponds to the same test performed in absence of hGSTA1.

Series [2] has as its target T1, hGSTA1. The series is described as follows: CDO-SG biosynthesis by hGSTA1 (glutathionylation of 5,6α-EC). It counts as biochemical. The settings on record: for Inhibition of CDO-SG biosynthesis: 1 and 10 mM CDNB, 1 and 10 μM HA, 1 μM 5,6β-EC, 10 μM CT, OCDO, 27-HC or 22(R)-HC (FIG. 2g-h). How it is done:
(§1) The mixture was incubated for 30 minutes at 30° C., and the reaction was stopped by addition of 200 μl MeOH. After centrifugation 10 min at 18,000 g (4° C.), the supernatant was evaporated to dryness using a speed vac concentrator (Savant SP01010, Thermo scientific) and the residue was resuspended in 20 μl MeOH. Samples were spotted on HPTLC NanoSilgur 10×10 cm plates (Macherey Nagel, ref 811042) and developed using ethyl acetate/butanol/acetic acid/water (6:2:3:2) for CDO-SG and CH2Cl/MeOH/NH4OH 84:15:1 for DDA. Standards were co-spotted with samples. […] The radioactivity was quantified by liquid scintillation counting of the ethanol extract of the silica scraped at the retention factor (Rf) corresponding to authentic 5,6α-EC, CDO-SG or DDA standards.

Series [3] addresses T1, hGSTA1. The series is described as follows: DDA biosynthesis by hGSTA1 (histaminylation of 5,6α-EC, DDAS activity). It counts as biochemical. The settings on record: for Inhibition of DDA biosynthesis (DDAS): 10 mM CDNB, 1 μM 5,6β-EC or 10 μM CT, OCDO, 27-HC or 22(R)-HC (FIG. 3d-e). As to the method:
as §1

For the next series, the system named is LXR. The settings on record: endogenous LXR ligand; cited from earlier work.
Substrate in series [4]: NCCc1c[nH]cn1
The experiment in a line: purified protein, by the assay type. The conditions noted are these: other: substrates 5,6α-EC + histamine, product DDA; pH 7.5; 30.0 °C.

Substrate in series [5]: N[C@@H](CCC(=O)N[C@@H](CS)C(=O)NCC(=O)O)C(=O)O
The experiment in a line: purified protein, by the assay type. The conditions noted are these: other: substrates 5,6α-EC + GSH, product CDO-SG; pH 7.5; 30.0 °C.

[6] abbreviates: substrates 5,6α-EC + GSH, product CDO-SG, Table 1.
The mark [7] stands for this setting: substrates 5,6α-EC + histamine, product DDA, Table 1.

Consider `CC(C)CCC[C@@H](C)[C@H]1CC[C@H]2[C@@H]3C[C@@H]4O[C@@]45C[C@@H](O)CC[C@]5(C)[C@H]3CC[C@]12C` [5,6α-EC, 5,6α-epoxy-cholesterol], for which the “Inhibition of CDNB-SG biosynthesis” value at hGSTA1 [1] is on record as “not inhibitors”. The “Vm^5,6-EC” value at hGSTA1 [2] (5,6-EC + GSH to CDO-SG) is listed as 1.33 pmol·min^−1·mg prot; at hGSTA1 [2] (setting [6]), 1.33 pmol · min^−1 · mg.pr; at hGSTA1 [3] (setting [7]), 0.81 pmol · min^−1 · mg.pr. Further, the “higher affinity of hGSTA1 for 5,6-EC than for CDNB” value at hGSTA1 [2] (ratio of Km) amounted to 73 fold. For the same molecule, the Km on hGSTA1 [2] (substrates 5,6α-EC + GSH, product CDO-SG) stood at 0.44 µM; on hGSTA1 [3] (substrates 5,6α-EC + histamine, product DDA), 0.28 µM. Also, the “catalytic efficiency higher to transform 5,6α-EC compared to CDNB” value on hGSTA1 [3] is 60 fold. On hGSTA1 [3] (5,6-EC + HA to DDA), the “Vm^5,6EC” value worked out at 0.81 pmol·min^−1·mg prot.

Take `CC(C)CCC[C@@H](C)[C@H]1CC[C@H]2[C@@H]3C[C@H]4O[C@]45C[C@@H](O)CC[C@]5(C)[C@H]3CC[C@]12C` [5,6β-EC, 5,6β-epoxy-cholesterol]: the “Inhibition of CDO-SG biosynthesis” value at hGSTA1 [2] was “potent inhibitors”. The “Inhibition of DDA biosynthesis (DDAS)” value on hGSTA1 [3] is “most potent inhibitor; also recorded: potent inhibitor”.

For `O=[N+]([O-])c1ccc(Cl)c([N+](=O)[O-])c1` [CDNB, 1-chloro-2,4-dinitrobenzene], the “Vm^CDNB” value was determined as 274 μmol·min^−1·mg prot at hGSTA1 [1] (CDNB + GSH to CDNB-SG) and 274 µmol/min/mg at hGSTA1 [1] (substrates CDNB + GSH, product CDNB-S-G, Table 1). In addition, the Km on hGSTA1 [1] (read-out: Km^CDNB, substrates CDNB + GSH, product CDNB-S-G) amounted to 32.2 µM. At hGSTA1 [2], the “Inhibition of CDO-SG biosynthesis” value is reported as “did not inhibit”. The “Inhibition of DDA biosynthesis (DDAS)” value on hGSTA1 [3] is recorded as “did not inhibit”.

Take `CC(C)CCC[C@@H](C)[C@H]1CC[C@H]2[C@@H]3C[C@@H](SC[C@H](NC(=O)CC[C@H](N)C(=O)O)C(=O)NCC(=O)O)[C@@]4(O)C[C@@H](O)CC[C@]4(C)[C@H]3CC[C@]12C` [CDO-SG, 3β,5α-dihydroxycholestan-6β-yl-S-glutathione]: the “weaker capacity to produce CDO-SG than to produce CDNB-SG” value at hGSTA1 [2] (ratio of maximum velocities) is 24.10^6 fold.

With `CC(C)CCC[C@@H](C)[C@H]1CC[C@H]2[C@@H]3C[C@@H](O)[C@@]4(O)C[C@@H](O)CC[C@]4(C)[C@H]3CC[C@]12C` [CT], on hGSTA1 [2], the “Inhibition of CDO-SG biosynthesis” value is “potent inhibitors”.

As for `CC(C)CCCC(C)[C@H]1CCC2C3C[C@@H](NCCc4cnc[nH]4)[C@@]4(O)C[C@@H](O)CC[C@]4(C)C3CC[C@@]21C` (some centres unmarked) [DDA, 5-hydroxy-6-[2-(1H-imidazol-4-yl)ethylamino]cholestan-3-ol], the “affinity for LXR” value with LXR is “sub-μM”.

For the molecule `N[C@@H](CCC(=O)N[C@@H](CS)C(=O)NCC(=O)O)C(=O)O` [GSH, glutathione], the “Vm^GSH” value was 8.12 μmol·min^−1·mg prot at hGSTA1 [1] (CDNB + GSH to CDNB-SG) and 1.50 pmol · min^−1 · mg · pr on hGSTA1 [2] (setting [6]). On hGSTA1 [3] (read-out: IC50, inhibition of the biosynthesis of DDA), the IC50 came out at 52 µM.

`NCCc1c[nH]cn1` [HA, histamine]: the “Inhibition of CDNB-SG biosynthesis” value on hGSTA1 [1] is recorded as “not inhibitors”. In addition, the “Inhibition of CDO-SG biosynthesis” value on hGSTA1 [2] is “potent inhibitor”. Moreover, the “catalytic efficiency higher to transform HA compared to GSH” value at hGSTA1 [3] worked out at 60 fold. The “weaker Km for HA than for GSH” value at hGSTA1 [3] (DDA biosynthesis versus CDO-SG biosynthesis) is 135 fold. The “Vm^His” value at hGSTA1 [3] (setting [7]) stood at 0.66 pmol · min^−1 · mg · pr.

Consider `CC(C)CCC[C@@H](C)[C@H]1CC[C@H]2[C@@H]3CC(=O)[C@@]4(O)C[C@@H](O)CC[C@]4(C)[C@H]3CC[C@]12C` [OCDO], for which the “Inhibition of CDO-SG biosynthesis” value at hGSTA1 [2] was “potent inhibitors”.

B1: hGSTA1 (Homo sapiens) (protein)
chain: MAEKPKLHYFNARGRMESTRWLLAAAGVEFEEKFIKSAEDLDKLRNDGYLMFQQVPMVEIDGMKLVQTRAILNYIASKYNLYGKDIKERALIDMYIEGIADLGEMILLLPVCPPEEKDAKLALIKEKIKNRYFPAFEKVLKSHGQDYLVGNKLSRADIHLVELLYYVEELDSSLISSFPLLKALKTRISNLPTVKKFLQPGSPRKPPMDEKSLEEARKIFRF
In the case of B1, in series [4], the Km was 0.35 µM and the Vmax was 0.66 pmol·min^−1·mg prot. In addition, in series [5], the Km worked out at 47 µM and the Vmax came to 1.50 pmol·min^−1·mg prot.
